Data from patent US20260284018A1, “DUAL INHIBITORS OF DYRK1A AND 5-HT2 FOR TREATING A BRAIN DISORDER” (THE REGENTS OF THE UNIVERSITY OF CALIFORNIA, priority 2023, published 2026).

How the values were obtained:
[1] = target: T1, human recombinant 5-HT2CR (Homo sapiens, UniProt P28335); assay: IPOne HTRF assay, 5-HT2CR; type: cell-based; conditions: for antagonist activity at 5-HT2C, IP-One / selectivity of antagonism, 5-HT2C versus 5-HT2A, IP-One: antagonist mode
T1 construct: host or cells: CHO-K1
T1 sequence (P28335 33-458): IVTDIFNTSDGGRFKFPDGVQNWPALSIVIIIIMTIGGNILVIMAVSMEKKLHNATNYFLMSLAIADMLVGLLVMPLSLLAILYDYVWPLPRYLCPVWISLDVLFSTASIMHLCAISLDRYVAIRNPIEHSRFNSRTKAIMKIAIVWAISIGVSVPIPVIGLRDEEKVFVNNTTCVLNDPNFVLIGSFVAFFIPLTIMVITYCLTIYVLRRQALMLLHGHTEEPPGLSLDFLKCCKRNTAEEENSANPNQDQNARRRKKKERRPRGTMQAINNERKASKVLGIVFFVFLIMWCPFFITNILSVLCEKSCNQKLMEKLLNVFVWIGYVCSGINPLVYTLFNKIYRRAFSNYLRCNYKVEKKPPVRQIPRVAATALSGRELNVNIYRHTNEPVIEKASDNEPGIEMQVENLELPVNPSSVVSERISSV
Experimental: (§1) IPOne Assays. The 5-HT2AR and 5-HT2CR IPOne HTRF assays were performed at Epics Therapeutics S.A. (Belgium, FAST-0505I) using conventional methods. Briefly, CHO-K1 cells expressing human recombinant 5-HT2AR or 5-HT2CR grown to mid-log phase in culture media without antibiotics were detached with PBS-EDTA, centrifuged, and resuspended in medium without antibiotics buffer. Then, 20,000 cells were distributed in a 96-well plate and incubated overnight at 37° C. with 5% CO2. For agonist testing, the medium was removed and 20 μL of assay buffer plus 20 μL of test compound or reference agonist (α-Me-5-HT) was added to each well. The plate was incubated for 60 min at 37° C. with 5% CO2. For antagonist testing, the medium was removed and 20 μL of assay buffer plus 20 μL of test compound or reference antagonist (ketanserin) was added to each well. The plate was incubated for 60 min at 37° C. with 5% CO2. After addition of the lysis buffer containing IP1-d2 and anti-IP1 cryptate detection reagents, plates were incubated for 1 h at room temperature and fluorescence ratios were measured according to the manufacturer's specifications using the HTRF kit.

[2] = target: 5-HT2C (Homo sapiens, UniProt P28335); assay: Radioligand ([3H]-LSD) competition binding assays, 5-HT2C versus 5-HT2A; conditions: FIG. 4
Experimental: Radioligands Binding Assays. Binding buffer consisted of 50 mM Tris HCl, 10 mM MgCl2, 0.1 mM EDTA disodium dihydrate in autoclaved deionized water. The solution was adjusted to pH 7.4 with […] NaOH(aq) and stored at 4° C. This solution was used for membrane preparation generation as well as in saturation and competition binding assays.
For the generation of membrane preparations, 15-cm plates of PSYLI2 cells (HEK293T cell line stably expressing psychLight2; mycoplasma free) or HEK293T cells (ATCCCRL-11268; mycoplasma free) lipofected with pCMV-GRAB_5-HT were grown in Dulbecco's Modified Eagle Media (DMEM) (Fisher, 11995073) containing 10% fetal bovine serum (Fisher, 26-140-079) and 1% penicillin/streptomycin (Fisher, 15140-163). When the cells were >90% confluent, the media was removed, and the cells were washed with Dulbecco's Phosphate Buffered Saline (DPBS, 15 mL) (ThermoFisher, #14190-250). Next, DMEM (15 mL) lacking fetal bovine serum and penicillin/streptomycin was added, and the cells were serum-starved for 4-12 h. All but ~5 mL of the media was removed from the plates before placing them on ice. […] The suspension was transferred to 2.0 mL Eppendorf tubes in 1.0 mL aliquots, saving a single aliquot of 0.25-0.50 mL suspension to use for quantification of protein concentration via a Bradford assay. […]

[3] = target: T2, human recombinant 5-HT2AR (Homo sapiens, UniProt P28223); assay: IPOne HTRF assay, 5-HT2AR; type: cell-based; conditions: for antagonist activity at 5-HT2A, IP-One: antagonist mode
T2 construct: host or cells: CHO-K1
T2 sequence (P28223 whole entry): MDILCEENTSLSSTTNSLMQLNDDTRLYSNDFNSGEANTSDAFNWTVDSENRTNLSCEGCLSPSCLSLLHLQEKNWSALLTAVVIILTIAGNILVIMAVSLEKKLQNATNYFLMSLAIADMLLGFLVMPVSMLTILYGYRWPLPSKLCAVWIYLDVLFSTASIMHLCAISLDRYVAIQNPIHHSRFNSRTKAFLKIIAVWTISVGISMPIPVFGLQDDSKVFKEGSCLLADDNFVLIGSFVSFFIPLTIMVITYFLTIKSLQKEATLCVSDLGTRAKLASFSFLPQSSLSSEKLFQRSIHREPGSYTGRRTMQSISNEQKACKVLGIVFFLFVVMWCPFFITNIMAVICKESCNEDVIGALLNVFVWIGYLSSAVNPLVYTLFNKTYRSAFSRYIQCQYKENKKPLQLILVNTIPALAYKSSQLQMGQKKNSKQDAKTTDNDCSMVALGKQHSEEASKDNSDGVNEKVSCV
Experimental: as §1

[4] = target: T3, CHEK1 (Homo sapiens, UniProt O14757); conditions: 10 μM; cited from earlier work
T3 construct: purchased Eurofins DiscoverX
T3 sequence (O14757 whole entry): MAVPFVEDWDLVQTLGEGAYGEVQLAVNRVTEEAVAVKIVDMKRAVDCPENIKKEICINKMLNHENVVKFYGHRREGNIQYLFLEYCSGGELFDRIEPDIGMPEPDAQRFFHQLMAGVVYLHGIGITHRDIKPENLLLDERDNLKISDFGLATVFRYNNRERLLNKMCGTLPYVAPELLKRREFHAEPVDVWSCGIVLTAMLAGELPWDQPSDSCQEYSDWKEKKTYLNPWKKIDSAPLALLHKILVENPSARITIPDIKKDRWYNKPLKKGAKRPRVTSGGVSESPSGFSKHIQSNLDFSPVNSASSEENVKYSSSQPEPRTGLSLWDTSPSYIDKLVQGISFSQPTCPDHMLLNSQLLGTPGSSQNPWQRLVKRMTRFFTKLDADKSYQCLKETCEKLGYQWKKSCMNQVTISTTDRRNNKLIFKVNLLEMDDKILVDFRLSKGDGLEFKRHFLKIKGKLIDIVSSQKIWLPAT

[5] = target: T4, TSSK1B (Homo sapiens, UniProt Q9BXA7); conditions: 10 μM; cited from earlier work
T4 construct: purchased Eurofins DiscoverX KINOMEscan scanEDGE
T4 sequence (Q9BXA7 whole entry): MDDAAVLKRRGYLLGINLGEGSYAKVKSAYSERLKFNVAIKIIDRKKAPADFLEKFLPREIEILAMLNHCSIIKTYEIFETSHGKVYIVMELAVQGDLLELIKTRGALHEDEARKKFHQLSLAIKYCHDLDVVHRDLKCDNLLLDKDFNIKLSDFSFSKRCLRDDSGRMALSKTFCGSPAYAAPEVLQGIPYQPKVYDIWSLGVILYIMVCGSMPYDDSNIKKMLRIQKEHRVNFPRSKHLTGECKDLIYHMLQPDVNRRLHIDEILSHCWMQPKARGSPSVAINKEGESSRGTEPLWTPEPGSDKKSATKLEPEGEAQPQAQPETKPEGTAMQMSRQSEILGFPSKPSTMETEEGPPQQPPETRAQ

| SMILES | activation of 5-HT2C, IP-One agonist mode [1] | antagonist activity at 5-HT2C, IP-One [1] | selectivity of antagonism, 5-HT2C versus 5-HT2A, IP-One [1] | affinity for 5-HT2C relative to 5-HT2A [2] | activation of 5-HT2A, IP-One agonist mode [3] | antagonist activity at 5-HT2A, IP-One [3] | Percent Control [4] [%] | Percent Control [5] [%] |
| --- | --- | --- | --- | --- | --- | --- | --- | --- |
| COc1ccc2c(c1)N(CCN(C)C)/C(=C/C(C)=O)S2.O=C(O)/C=C/C(=O)O [HTW_B_14 fumarate, (Z)-1-(3-(2-(dimethylamino)ethyl)-5-methoxybenzo[d]thiazol-2(3H)-ylidene)propan-2-one Fumarate Salt (1:1)] | no activation | antagonist activity | moderate selectivity for antagonism of 5-HT2C | higher affinity ligands for 5-HT2C than 5-HT2A | no activation | antagonist activity |  |  |
| COc1ccc2c(c1)[nH]c1c(C)nccc12 [Harmine, harmine] |  |  |  |  |  |  | 96 | 100 |
| COc1ccc2c3ccnc(C)c3n(CCN(C)C)c2c1.O=C(O)/C=C/C(=O)O [HTW_A_8 fumarate, 2-(7-methoxy-1-methyl-9H-pyrido[3,4-b]indol-9-yl)-N,N-dimethylethan-1-amine Fumarate Salt (2:3)] | no activation | antagonist activity | moderate selectivity for antagonism of 5-HT2C | higher affinity ligands for 5-HT2C than 5-HT2A | no activation | antagonist activity |  |  |
